Target: Inosine-5'-monophosphate dehydrogenase (IMPDH) (Homo sapiens, UniProt P20839+P12268)
Test: Inhibitory activity against (IMPDH) inosine 5'-monophosphate dehydrogenase
Type: protein assay

Row | IC50 | SMILES
1 | 0.18 µM | CC(C)(C)NC(=O)C(=O)Nc1ccc(-c2cnco2)c(Cl)c1
2 | 0.04 µM | COc1cc(NC(=O)C(=O)NC(C)(C)C)ccc1-c1cnco1
3 | 20 µM | CC(C)(C)NC(=O)C(=O)Nc1ccc(-c2cnco2)cc1
4 | 14 µM | Cc1ncoc1-c1ccc(NC(=O)C(=O)NC(C)(C)C)cc1
5 | 99 µM | N#Cc1ccc2[nH]ccc2c1
6 | 32 µM | COc1ccc2[nH]cc(C(=O)CSc3ccncc3)c2c1
7 | 27 µM | CCCCc1ncoc1-c1ccc(NC(=O)C(=O)NC(C)(C)C)cc1OC
8 | 16 µM | COc1ccc(NC(=O)C(=O)NC(C)(C)C)cc1-c1cnco1
9 | 2.4 µM | COc1cc(NC(=O)C(=O)NC(C)(C)C)ccc1-c1ccc[nH]1
10 | 15 µM | COc1cc(NC(=O)C(=O)NC(C)(C)C)ccc1-c1nc[nH]n1
11 | 31 µM | COc1ccc(C#N)c2ccccc12
12 | 1.3 µM | CCOc1cc(NC(=O)C(=O)NC(C)(C)C)ccc1-c1cnco1
13 | 168 µM | Nc1ccnc2cc(Cl)ccc12
14 | 21 µM | COc1ccc(NC(=O)C(=O)NC(C)(C)C)cc1OC
15 | 35 µM | COc1cc(NC(=O)C(=O)NC(C)(C)C)ccc1-c1ocnc1Cc1ccccc1
16 | 0.73 µM | CC(C)(C)NC(=O)C(=O)Nc1ccc(-c2cnco2)c(F)c1
17 | 0.43 µM | COc1cc(NC(=O)C(=O)NC(C)(C)C)ccc1-c1ocnc1C
18 | 8.1 µM | COc1cc(NC(=O)C(=O)NC(C)(C)C)ccc1-c1ccco1
19 | 19 µM | COc1cc(N)ccc1-c1cnco1
20 | 88 µM | Cc1cc2c(cc1C)C(=O)C(C#N)CO2 (centres undefined)
21 | 0.47 µM | COc1cc(NC(=O)C(=O)NC(C)(C)C)ccc1-c1cocn1
22 | 54 µM | Oc1cccc2[nH]c3ccccc3c12
23 | 4.4 µM | CC(C)(C)NC(=O)C(=O)Nc1ccc(-c2cnco2)c(O)c1
24 | 18 µM | CC(C)(C)NC(=O)C(=O)Nc1ccc(-c2cnco2)c(C(F)(F)F)c1
25 | 620 µM | CC(=O)c1ccc(O)cc1C
26 | 1.2 µM | CCc1cc(NC(=O)C(=O)NC(C)(C)C)ccc1-c1cnco1
27 | 0.2 µM | Cc1cc(NC(=O)C(=O)NC(C)(C)C)ccc1-c1cnco1
28 | 0.91 µM | COc1cc(NC(=O)C(=O)NC(C)(C)C)ccc1-c1cncs1

Row | SMILES | IC50
29 | N#Cc1c[nH]c2ccccc12 | 32 µM
